Three compounds from US6653303B1, “Cycloalkyl, lactam, lactone and related compounds, pharmaceutical compositions comprising same, and methods for inhibiting β-amyloid peptide release and/or its synthesis by use of such compounds” (Athena Neurosciences, Inc., priority 1996, dated 2003) can be followed below.

Each structure is given as a SMILES string.

With `C[C@H](NC(=O)Cc1cc(F)cc(F)c1)C(=O)NC1C(=O)N(C)c2ccccc2N(C)C1=O` [Example 8-150, 3-[N′-(3,5-Difluorophenylacetyl)-L-alaninyl]amino-2,4-dioxo-1,5-bis-methyl-2,3,4,5-tetrahydro-1H-1,5-benzodiazepine], the melting point was in the range of 206 to 207 °C.
For `COC(=O)[C@@H](NC(=O)CC1CCCC1)c1ccccc1` [Example B77, N-(Cyclopentylacetyl)-L-phenylglycine Methyl Ester], the melting point was 83 to 86 °C.
`C[C@H](NC(=O)C(=O)c1cc(F)cc(F)c1)C(=O)NC1N=C(c2ccccc2)c2ccccc2N(C)C1=O` (stereo partly drawn) came in with a melting point of 128 to 129 °C.
